Results as given in ChEMBL document CHEMBL2062363, “Ligand-based design, in silico ADME-Tox filtering, synthesis and biological evaluation to discover new soluble 1,4-DHP-based CFTR activators” (Eur J Med Chem, 2012).

Tests used:
[1] = Potentiation of forskolin-induced CFTR deltaF508 mutant expressed in FRT cells co-expressing halide-sensitive YFP-H148Q/I152L by fluorescence quenching assay; assay type: cell-based, Homo sapiens
[2] = target: L-type voltage-dependent Ca2+ channel (Homo sapiens, UniProt O60840+Q01668+Q13698+Q13936); assay: Inhibition of L-type voltage-dependent Ca2+ channel at 1 uM
[3] = Induction of nitric oxide release in phosphate buffer at pH 7.4 at 10^-4 M after 1 hr by Griess reaction presence of L-cysteine; assay type: physicochemical; conditions: pH 7.4, 1 h, 100 µM

| SMILES | pEC50 for potentiation of CFTR deltaF508 (activation potency) [1] | inhibition at 1 µM [2] | Activity [3] |
| --- | --- | --- | --- |
| CCOC(=O)C1=C(C)NC(C)=C(C(=O)OCC)C1c1ccc([N+](=O)[O-])cc1 | 5.71 | 47.4% |  |
| COCCOC(=O)C1=C(C)N=C(C)/C(=C(/O)OCCOC)C1/C=C/c1ccccc1OC (configuration not stated) | 6.1 | 10.6% |  |
| C=CCO/C(O)=C1\C(C)=NC(SCC)=C(C#N)C1c1ccc(Cl)cc1 (configuration not stated) | 5.58 | 29.7% |  |
| CCOC(=O)C1=C(C)NC(C)=C(C(=O)OCC)C1c1cccc(Oc2ccccc2)c1 | 6.59 | 43.2% |  |
| C=CCOC(=O)C1=C(C)NC(C)=C(C(=O)OCC=C)C1/C=C/c1ccccc1OC | 6.49 | 18% |  |
| CCOC(=O)C1=C(C)NC(C)=C(C(=O)OCC)C1c1ccc(C(C)C)cc1 | 6.22 | 30.8% |  |
| CC1=C(C(=O)OC(C)C)C(c2ccc(F)cc2)C(C(=O)OC(C)C)=C(C)N1 | 6.52 | 96.8% |  |
| C=CCOC(=O)C1=C(C)NC(C)=C(C(=O)OCC=C)C1c1cccc([N+](=O)[O-])c1 | 6.92 | 100% |  |
| C=CCOC(=O)C1=C(C)NC(C)=C(C(=O)OCC=C)C1c1ccc(OC)c(OC)c1 | 5.55 | 28.7% |  |
| C=CCOC(=O)C1=C(C)NC(C)=C(C(=O)OCC=C)C1c1ccc(O)c(OCC)c1 | 6.46 | 63.6% |  |
| C=CCOC(=O)C1=C(C)NC(C)=C(C(=O)OCC=C)C1c1ccc(C(C)C)cc1 | 6.6 | 64% |  |
| C=CCOC(=O)C1=C(C)NC(C)=C(C(=O)OCC=C)C1c1ccc(C)cc1 | 6.3 | 55.7% |  |
| CCOC(=O)C1=C(C)NC(C)=C(C(=O)OCC)C1c1c(F)cccc1Cl | 6.44 | 100% |  |
| COC(=O)C1=C(C)NC(C)=C(C(=O)OC)C1c1ccc(C(C)(C)C)cc1 | 5.52 | 20.9% |  |
| COCCOC(=O)C1=C(C)NC(C)=C(C(=O)OCCOC)C1c1ccc(-c2cccc(Cl)c2Cl)o1 | 5.7 | 44.9% |  |
| CCN(CC)c1ccc(C2C(C(=O)OC)=C(C)NC(C)=C2C(=O)OC)cc1 | 5.92 | 7.1% |  |
| C=CCOC(=O)C1=C(C)NC(C)=C(C(=O)OCC=C)C1c1ccc(Cl)cc1Cl | 6.4 | 81% |  |
| COC(=O)C1=C(C)NC(C)=C(C(=O)OC)C1c1ccccc1 | 5.77 | 70.5% |  |

| SMILES | pEC50 for potentiation of CFTR deltaF508 (activation potency) [1] | inhibition at 1 µM [2] | Activity [3] |
| --- | --- | --- | --- |
| C=CCOC(=O)C1=C(C)NC(SC)=C(C#N)C1c1ccc(Cl)cc1 (configuration not stated) | 6.26 | 36.7% |  |
| CCCCOc1ccc(C2C(C(=O)OCC)=C(C)NC(C)=C2C(=O)OCC)cc1 | 5.52 | 9.6% |  |
| COC(=O)C1=C(C)NC(C)=C(C(=O)OC)C1c1cccc(F)c1 | 6.21 | 91.9% |  |
| CCOC(=O)C1=C(C)NC(SC)=C(C#N)C1c1ccccc1 (configuration not stated) | 5.3 | 23.4% |  |
| C=CCOC(=O)C1=C(C)NC(C)=C(C(=O)OCC=C)C1c1ccc(N(C)C)cc1 | 5.82 | 23.9% |  |
| C=CCOC(=O)C1=C(C)NC(C)=C(C(=O)OCC=C)C1c1ccc(C(=O)OC)cc1 | 5.52 | 7.8% |  |
| C=CCOC(=O)C1=C(C)NC(C)=C(C(=O)OCC=C)C1c1ccccc1Cl | 6.74 | 100% |  |
| C=CCOC(=O)C1=C(C)NC(C)=C(C(=O)OCC=C)C1c1cccc(Cl)c1 | 6.82 | 100% |  |
| CCOC(=O)C1=C(C)NC(C)=C(C(=O)OCC)C1c1ccc2c(c1)OCO2 | 5.77 | 38.2% |  |
| CC1=C(C(=O)OC(C)C)C(c2ccc(C)cc2)C(C(=O)OC(C)C)=C(C)N1 | 6.27 | 47% |  |
| COC(=O)C1=C(C)NC(C)=C(C(=O)OC)C1c1ccc(-c2ccc(Cl)c(Cl)c2)o1 | 5.51 | 8.3% |  |
| COC(=O)C1=C(C)NC(C)=C(C(=O)OC)C1c1ccc(I)cc1 | 6.34 | 12.3% |  |
| COC(=O)C1=C(C)NC(C)=C(C(=O)OC)C1c1ccc(-c2cccc(Cl)c2Cl)o1 | 5.43 | 10.3% |  |
| C=CCOC(=O)C1=C(C)NC(C)=C(C(=O)OCC=C)C1c1ccc(OC)cc1 | 6.3 | 37.2% |  |
| C=CCOC(=O)C1=C(C)NC(C)=C(C(=O)OCC=C)C1c1ccc(I)cc1 | 5.77 | 37.5% |  |
| COC(=O)C1=C(C)NC(C)=C(C(=O)OC)C1c1ccc(OCc2ccccc2)cc1 | 5.46 | 22.5% |  |
| COC(=O)C1=C(C)NC(C)=C(C(=O)OCCCO[N+](=O)[O-])C1c1cccc([N+](=O)[O-])c1 (configuration not stated) | 5.88 |  | < 0.5% |
| CC1=C(C(=O)OCCCO[N+](=O)[O-])C(c2cccc([N+](=O)[O-])c2)C([N+](=O)[O-])=C(C)N1 (racemic) | 5.07 |  | < 0.5% |
